Reference: paper PMC2898634 (Chemical Communications (Cambridge, England), 2009)

Columns and labels:
[1] = target: IP3R1 with R504 mutated to glutamine (Rattus norvegicus, UniProt P29994, R504Q); assay: Ca2+ release in cell line expressing only IP3R1 with R504 mutated to glutamine; type: cell-based
IP3R = conditions: cited from earlier work

Sequence of IP3R1 with R504 mutated to glutamine (P29994 whole entry R504Q): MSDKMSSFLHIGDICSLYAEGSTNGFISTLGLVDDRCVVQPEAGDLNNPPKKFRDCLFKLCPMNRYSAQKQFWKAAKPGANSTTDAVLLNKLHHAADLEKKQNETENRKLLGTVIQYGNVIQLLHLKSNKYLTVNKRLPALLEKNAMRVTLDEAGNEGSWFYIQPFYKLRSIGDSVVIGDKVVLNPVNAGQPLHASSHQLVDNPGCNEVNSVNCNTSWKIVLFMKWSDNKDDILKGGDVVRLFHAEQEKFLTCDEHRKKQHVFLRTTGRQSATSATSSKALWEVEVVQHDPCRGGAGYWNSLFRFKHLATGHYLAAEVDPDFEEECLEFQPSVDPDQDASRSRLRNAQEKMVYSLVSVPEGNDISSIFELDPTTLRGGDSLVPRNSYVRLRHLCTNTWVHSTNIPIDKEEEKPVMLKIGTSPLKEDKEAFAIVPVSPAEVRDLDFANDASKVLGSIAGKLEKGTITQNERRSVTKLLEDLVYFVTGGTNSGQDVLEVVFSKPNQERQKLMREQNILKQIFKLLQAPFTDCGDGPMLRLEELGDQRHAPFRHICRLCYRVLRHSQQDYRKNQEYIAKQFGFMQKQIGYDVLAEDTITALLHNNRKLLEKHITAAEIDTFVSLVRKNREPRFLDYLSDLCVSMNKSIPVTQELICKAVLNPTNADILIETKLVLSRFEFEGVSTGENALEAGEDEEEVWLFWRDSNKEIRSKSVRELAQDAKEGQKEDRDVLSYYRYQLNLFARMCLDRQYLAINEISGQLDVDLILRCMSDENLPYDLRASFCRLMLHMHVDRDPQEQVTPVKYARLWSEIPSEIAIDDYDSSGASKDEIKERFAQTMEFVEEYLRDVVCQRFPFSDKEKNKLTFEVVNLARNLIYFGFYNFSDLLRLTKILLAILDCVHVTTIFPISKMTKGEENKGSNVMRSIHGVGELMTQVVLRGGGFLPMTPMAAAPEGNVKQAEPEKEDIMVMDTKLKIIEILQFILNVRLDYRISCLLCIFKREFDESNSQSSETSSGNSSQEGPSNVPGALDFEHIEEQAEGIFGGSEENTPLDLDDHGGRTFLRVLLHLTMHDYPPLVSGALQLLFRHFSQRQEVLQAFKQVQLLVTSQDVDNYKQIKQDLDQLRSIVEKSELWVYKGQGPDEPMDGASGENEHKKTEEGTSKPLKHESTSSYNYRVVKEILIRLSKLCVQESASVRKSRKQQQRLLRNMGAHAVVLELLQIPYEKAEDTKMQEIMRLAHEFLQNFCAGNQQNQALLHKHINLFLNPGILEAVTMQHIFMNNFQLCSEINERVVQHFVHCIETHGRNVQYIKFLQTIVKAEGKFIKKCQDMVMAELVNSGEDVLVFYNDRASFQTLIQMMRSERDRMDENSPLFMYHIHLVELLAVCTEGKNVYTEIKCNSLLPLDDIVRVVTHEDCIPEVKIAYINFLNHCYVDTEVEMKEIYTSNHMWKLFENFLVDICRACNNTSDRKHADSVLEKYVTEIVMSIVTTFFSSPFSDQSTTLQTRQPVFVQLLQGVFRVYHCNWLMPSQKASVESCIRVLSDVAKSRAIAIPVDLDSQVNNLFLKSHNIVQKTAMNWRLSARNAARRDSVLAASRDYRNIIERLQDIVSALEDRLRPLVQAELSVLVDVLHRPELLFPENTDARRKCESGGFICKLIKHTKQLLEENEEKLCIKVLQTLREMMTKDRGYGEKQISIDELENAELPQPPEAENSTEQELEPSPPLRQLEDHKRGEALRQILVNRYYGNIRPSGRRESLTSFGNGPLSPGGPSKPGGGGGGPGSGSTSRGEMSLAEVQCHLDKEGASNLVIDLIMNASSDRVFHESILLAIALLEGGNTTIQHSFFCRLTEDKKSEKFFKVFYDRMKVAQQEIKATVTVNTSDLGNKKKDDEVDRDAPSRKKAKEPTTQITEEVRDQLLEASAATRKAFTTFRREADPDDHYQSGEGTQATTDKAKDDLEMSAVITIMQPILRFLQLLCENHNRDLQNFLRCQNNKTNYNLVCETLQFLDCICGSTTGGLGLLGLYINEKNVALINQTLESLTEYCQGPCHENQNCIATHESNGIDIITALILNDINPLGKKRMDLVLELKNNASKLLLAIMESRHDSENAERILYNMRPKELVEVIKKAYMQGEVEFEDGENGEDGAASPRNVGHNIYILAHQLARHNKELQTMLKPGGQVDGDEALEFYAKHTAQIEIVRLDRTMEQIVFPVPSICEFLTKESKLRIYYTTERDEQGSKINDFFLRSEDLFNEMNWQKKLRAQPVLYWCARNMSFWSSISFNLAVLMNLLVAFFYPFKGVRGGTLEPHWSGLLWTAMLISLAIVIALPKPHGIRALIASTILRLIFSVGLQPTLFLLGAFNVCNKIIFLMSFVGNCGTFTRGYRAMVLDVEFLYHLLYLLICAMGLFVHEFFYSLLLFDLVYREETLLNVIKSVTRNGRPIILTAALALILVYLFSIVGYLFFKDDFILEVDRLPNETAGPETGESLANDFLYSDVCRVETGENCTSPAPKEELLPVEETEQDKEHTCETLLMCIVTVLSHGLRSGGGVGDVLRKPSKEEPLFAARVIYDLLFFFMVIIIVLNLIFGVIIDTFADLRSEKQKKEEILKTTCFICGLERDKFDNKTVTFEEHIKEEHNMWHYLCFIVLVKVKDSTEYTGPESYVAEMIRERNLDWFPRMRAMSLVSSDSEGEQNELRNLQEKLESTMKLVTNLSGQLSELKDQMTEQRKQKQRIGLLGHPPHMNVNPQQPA

potency relative to IP3 at the mutated receptor [1] | change of EC50 at mutant IP3R relative to IP3R1 ([1]; printed as EC50 reduced) [fold] | SMILES | potency relative to IP3 (IP3R) | activity at IP3R (result in words) (IP3R)
only equipotent with IP3 | 434 | Nc1ncnc2c1ncn2[C@@H]1O[C@H](CO)[C@@H](O[C@H]2O[C@H](CO)[C@@H](OP(=O)(O)O)[C@H](OP(=O)(O)O)[C@H]2O)[C@H]1OP(=O)(O)O [AdA, adenophostin A] | at least ten times more potent than IP3 | –
– | – | O=P(O)(O)O[C@@H]1[C@@H](O)[C@H](OP(=O)(O)O)[C@H](O)[C@H](O)[C@H]1O [Ins(1,5)P2] | – | inactive
